The assay has as its target T1, human TRPM5 ion channel (Homo sapiens, UniProt Q9NZQ8).
T1 sequence (Q9NZQ8 1-1165): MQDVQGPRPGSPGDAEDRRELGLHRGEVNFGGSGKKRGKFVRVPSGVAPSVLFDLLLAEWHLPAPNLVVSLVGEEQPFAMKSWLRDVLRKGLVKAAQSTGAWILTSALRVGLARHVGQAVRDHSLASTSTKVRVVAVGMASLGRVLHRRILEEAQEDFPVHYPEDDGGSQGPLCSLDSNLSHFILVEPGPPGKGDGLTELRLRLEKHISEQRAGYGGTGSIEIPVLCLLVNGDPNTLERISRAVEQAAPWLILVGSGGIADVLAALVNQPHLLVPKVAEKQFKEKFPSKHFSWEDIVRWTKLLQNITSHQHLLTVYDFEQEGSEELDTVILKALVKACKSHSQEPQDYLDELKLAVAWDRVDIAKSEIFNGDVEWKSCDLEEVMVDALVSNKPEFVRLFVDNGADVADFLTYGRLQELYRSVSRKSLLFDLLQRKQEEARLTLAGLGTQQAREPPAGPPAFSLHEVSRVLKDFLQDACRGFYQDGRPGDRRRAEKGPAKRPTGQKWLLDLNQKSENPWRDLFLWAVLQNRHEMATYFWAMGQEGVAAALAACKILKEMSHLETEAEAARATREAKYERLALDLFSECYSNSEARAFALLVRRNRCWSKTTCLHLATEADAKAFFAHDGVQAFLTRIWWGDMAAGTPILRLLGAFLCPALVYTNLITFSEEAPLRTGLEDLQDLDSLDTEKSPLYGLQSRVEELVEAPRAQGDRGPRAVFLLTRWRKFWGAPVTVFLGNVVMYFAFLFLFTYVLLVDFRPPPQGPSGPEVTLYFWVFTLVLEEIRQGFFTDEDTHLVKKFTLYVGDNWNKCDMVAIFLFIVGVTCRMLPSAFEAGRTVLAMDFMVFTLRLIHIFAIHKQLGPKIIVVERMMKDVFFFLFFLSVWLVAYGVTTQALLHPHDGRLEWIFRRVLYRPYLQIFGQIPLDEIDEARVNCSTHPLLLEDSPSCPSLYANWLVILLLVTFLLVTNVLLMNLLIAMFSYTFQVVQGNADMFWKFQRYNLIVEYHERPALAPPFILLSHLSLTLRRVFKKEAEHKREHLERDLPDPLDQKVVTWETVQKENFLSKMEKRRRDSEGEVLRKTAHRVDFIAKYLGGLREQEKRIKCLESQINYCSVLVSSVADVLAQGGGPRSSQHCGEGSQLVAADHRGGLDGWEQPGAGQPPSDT
The assay can be described thus: FLIPR-based assay for membrane potential and calcium mobilization (TRPM5 inhibiting activity). The settings on record: live cells, 30° C., read-out: hTrpM5 IC50. The class given is cell-based. The protocol: The activity of compounds of the present invention on human TRPM5 ion channel was measured using the FLIPR-based (fluorescent imaging plate reader) assay for membrane potential and calcium mobilization described in U.S. Patent Application Publication No. 2008/0249189 A1 in live cells, wherein the assay is performed at 30° C. Determinations of affinity and efficacy were derived from measurements of TRPM5 activity over a range of compound concentrations. The concentration range was achieved by 10 serial dilutions (either 2-fold or 3-fold decrements) from a maximum concentration of no greater that 100 μM. Curver fitting was performed on the resulting data to yield concentration-effect functions, from which the half-maximal inhibitory concentration (IC50) was derived for all the tested compounds. The IC50 values were considered to be accurate reflections of affinity between the compounds and TRPM5.
Representative compounds of the present invention have been tested in the FLIPR assay for TRPM5 inhibiting activity, which is described in detail above.
In the case of `COc1cc(/C=N/NC(=O)CCn2cc(C)c3c(C)cccc32)ccc1OCc1cccnn1` [Example 19, 3-(3,4-Dimethyl-1H-indol-1-yl)-N′-(3-methoxy-4-(pyridazin-3-ylmethoxy)benzylidene)propanehydrazide], the IC50 was determined as 180 nM. To `COc1cc(/C=N/NC(=O)C2CC2c2ccccc2)ccc1OCc1cccnc1` (stereo not drawn) [Example 20, trans-N′-(3-Methoxy-4-(pyridin-3-ylmethoxy)benzylidene)-2-phenylcyclopropanecarbohydrazide] belongs 1600 nM; to `COc1cc(/C=N/NC(=O)CCn2cc(C)c3c(C)cccc32)ccc1OCc1cnccn1` [Example 21, 3-(3,4-Dimethyl-1H-indol-1-yl)-N′-(3-methoxy-4-(pyrazin-2-ylmethoxy)benzylidene)propanehydrazide], 60 nM; to `Cc1cc(/C=N/NC(=O)CCc2cn(C)c3ccccc23)cc2cccnc12` [Example 23, 3-(1-Methyl-1H-indol-3-yl)-N′-((8-methylquinolin-6-yl)methylene)propanehydrazide], 160 nM. To `COc1cccc(CCC(=O)N/N=C/c2cc(C)c3ncccc3c2)n1` [Example 26, 3-(6-Methoxypyridin-2-yl)-N′-((8-methylquinolin-6-yl)methylene)propanehydrazide] belongs 2000 nM.

In the case of `COc1cc(/C=N/NC(=O)CCn2cc(C)c3c(C)cccc32)cc2cccnc12` [Example 27, 3-(3,4-Dimethyl-1H-indol-1-yl)-N′-((8-methoxyquinolin-6-yl)methylene)propanehydrazide], the half-inhibitory concentration (IC50) was found to be 1.4 nM. To `COc1cc(/C=N/NC(=O)C2CC2c2cccc(Cl)c2)cc2cccnc12` (stereo not drawn) [Example 30, trans-2-(3-Chlorophenyl)-N′-((8-methoxyquinolin-6-yl)methylene)cyclopropanecarbohydrazide] belongs 45 nM. In the case of `Cc1cn(CCC(=O)N/N=C/c2ccc3nccnc3c2)c2ccccc12` [Example 32, 3-(3-Methyl-1H-indol-1-yl)-N′-(quinoxalin-6-ylmethylene)propanehydrazide] it was 2200 nM.

On to `Cc1cn(CCC(=O)N/N=C/c2ccc3ncccc3n2)c2ccccc12` [Example 33, N′-((1,5-Naphthyridin-2-yl)methylene)-3-(3-methyl-1H-indol-1-yl)propanehydrazide], for which the half-inhibitory concentration (IC50) came to 1300 nM. To `Cc1cn(CCC(=O)NN=Cc2ccc3nnccc3c2)c2ccccc12` [Example 34, N′-(Cinnolin-6-ylmethylene)-3-(3-methyl-1H-indol-1-yl)propanehydrazide] belongs 430 nM; to `Cc1cc(/C=N/NC(=O)CSc2cccc(Cl)c2)cc2cccnc12` [Example 35, 2-(3-Chlorophenylthio)-N′-((8-methylquinolin-6-yl)methylene)acetohydrazide], 830 nM; to `COc1ccc(/C=N/NC(=O)CCc2cnc3ccccc3c2)cc1OC` [Example 39, N′-(3,4-dimethoxybenzylidene)-3-(quinolin-3-yl)propanehydrazide], 810 nM.

Take `Cc1cc(/C=N/NC(=O)C2CC2c2ccc(F)cc2)cc2cccnc12` (stereo not drawn) [Example 40, trans-2-(4-Fluorophenyl)-N′-((8-methylquinolin-6-yl)methylene)cyclopropanecarbohydrazide]: the IC50 was 510 nM. Regarding `Cc1cc(/C=N/NC(=O)C2CC2c2ccc(Cl)cn2)cc2cccnc12` (stereo not drawn) [Example 43, trans-2-(5-Chloropyridin-2-yl)-N′-((8-methylquinolin-6-yl)methylene)cyclopropanecarbohydrazide], the IC50 worked out at 5400 nM.

For the molecule `O=C(N/N=C/c1cc(F)c2ncccc2c1)C1CC1c1ccccc1` (stereo not drawn) [Example 44, trans-N′-((8-Fluoroquinolin-6-yl)methylene)-2-phenylcyclopropanecarbohydrazide], the IC50 worked out at 550 nM.

With `Cc1cccc2c1c(C)cn2CCC(=O)N/N=C/c1ccc2c(c1)OCCCO2` [Example 45], the IC50 was found to be 24 nM. In the case of `COc1ccc(/C=N/NC(=O)CCn2cc(C)c3c(OC)cccc32)cc1OC` [Example 46, N′-(3,4-Dimethoxybenzylidene)-3-(4-methoxy-3-methyl-1H-indol-1-yl)propanehydrazide] it was 6 nM. In the case of `COc1ccc(/C=N/NC(=O)CCn2cc(CN(C)C)c3c(Cl)cccc32)cc1OC` [Example 47, 3-(4-Chloro-3-((dimethylamino)methyl)-1H-indol-1-yl)-N′-(3,4-dimethoxybenzylidene)propanehydrazide] it was 1500 nM. In the case of `COc1ccc(/C=N/NC(=O)CCc2cn(C)c3c(C)cccc23)cc1OC` [Example 48, N′-(3,4-Dimethoxybenzylidene)-3-(1,7-dimethyl-1H-indol-3-yl)propanehydrazide], the IC50 came out at 9 nM. In the case of `COc1ccc(/C=N/NC(=O)CCn2cc(Cl)c3c(C)cccc32)cc1OC` [Example 49, 3-(3-Chloro-4-methyl-1H-indol-1-yl)-N′-(3,4-dimethoxybenzylidene)propanehydrazide] it was 1.3 nM; in that of `COc1ccc(/C=N/NC(=O)CCn2cc(C)c3c(CO)cccc32)cc1OC` [Example 50, N′-(3,4-Dimethoxybenzylidene)-3-(4-(hydroxymethyl)-3-methyl-1H-indol-1-yl)propanehydrazide], 260 nM; in that of `COc1ccc(/C=N/NC(=O)C(C)S(=O)(=O)c2cccc(Cl)c2)cc1OC` (stereo not shown) [Example 51, 2-(3-Chlorophenylsulfonyl)-N′-(3,4-dimethoxybenzylidene)propanehydrazide], 1700 nM. In the case of `COc1cc(C)c2cc(/C=N/NC(=O)CCn3cc(C)c4ccccc43)ccc2n1` [Example 52, N′-((2-Methoxy-4-methylquinolin-6-yl)methylene)-3-(3-methyl-1H-indol-1-yl)propanehydrazide] it was 2000 nM; in that of `COc1cnc(/C=N/NC(=O)C(C)Sc2cccc(Cl)c2)cc1OC` (stereo not shown) [Example 53, 2-(3-Chlorophenylthio)-N′-((4,5-dimethoxypyridin-2-yl)methylene)propanehydrazide], > 30000 nM; in that of `COc1ccc(/C=N/NC(=O)CCn2ccc3ccccc32)cc1OC` [Example 54, N′-(3,4-dimethoxybenzylidene)-3-(1H-indol-1-yl)propanehydrazide], 170 nM.

Turning to `COc1ccc(/C=N/NC(=O)CSc2ccccc2)cc1OC` [Example 55, N′-(3,4-dimethoxybenzylidene)-2-(phenylthio)acetohydrazide], the IC50 is 660 nM. As to `COc1ccc(/C=N/NC(=O)CCn2cc(C)c3ccccc32)cc1OC` [Example 56, N′-(3,4-dimethoxybenzylidene)-3-(3-methyl-1H-indol-1-yl)propanehydrazide], the IC50 turned out to be 17 nM. As to `COc1ccc(/C=N/NC(=O)CCn2ccc3c(C)cccc32)cc1OC` [Example 57, N′-(3,4-dimethoxybenzylidene)-3-(4-methyl-1H-indol-1-yl)propanehydrazide], the IC50 was found to be 12 nM. In the case of `Cc1cn(CCC(=O)N/N=C/c2ccc3c(c2)OCCCO3)c2ccccc12` [Example 58, N′-((3,4-dihydro-2H-benzo[b][1,4]di-oxepin-7-yl)methylene)-3-(3-methyl-1H-indol-1-yl)propanehydrazide] it was 180 nM. To `Cc1cn(CCC(=O)N/N=C/c2ccc3ncccc3c2)c2ccccc12` [Example 59, 3-(3-methyl-1H-indol-1-yl)-N′-(quinolin-6-ylmethylene)-propanehydrazide] belongs 340 nM; to `Cc1cn(CCC(=O)N/N=C/c2ccc3c(c2)OCCN3C)c2ccccc12` [Example 60, 3-(3-methyl-1H-indol-1-yl)-N′-((4-methyl-3,4-dihydro-2H-benzo[b][1,4]-oxazin-7-yl)methylene)propanehydrazide], 750 nM.

Values taken from patent US20110033393A1, “Hydrazone Compounds and Their Use” (priority 2009, published 2011).
